{
  "source": "paper PMC11674305",
  "about": "“Inhibition of Neural Crest Cell Migration by Strobilurin Fungicides and Other Mitochondrial Toxicants” (Cells, 2024)",
  "key": {"[1]": {"tested_on": "neural crest cells (NCC)", "test": "Long-term transwell migration assay (18 h pre-exposure, 6 h migration)", "format": "cell-based, human", "description": "Magel et al. (2024): Inhibition of neural crest cells migration by strobilurin fungicides […]\nFigure S11. Prolonged exposure of NCC in a modified transwell assay setup.\n(A) Schematic illustration of the “long-term” transwell migration assay. In the beginning, NCC were plated into the insert of the transwell and treated with potential toxicants. In comparison to the standard transwell set-up, the lower medium compartment was initially not supplemented with FBS. In order to ensure a uniform concentration, picoxystrobin was added to both compartments. Cells were then incubated for 18 h (in the absence of a migration stimulus). Afterwards, 5% FBS was added to the lower compartment, to initiate NCC migration through the membrane pores. After 6 h, the number of cells that reached the downward surface of the membrane was quantified. (B) Result of concentration-dependent picoxystrobin testing in galactose medium in the long-term transwell assay. Cytochalasin D (200 nM) was used as positive control for “inhibited” migration (CytoD). “Unstimulated” migration (no FBS) is also shown. The dotted line at 75% indicates the threshold for inhibited migration. Data are expressed as means ± SEM from 3 independent biological experiments.\n(also on this page, place not known: concentration -dependent long -term dott ed -4Ctrl Transwell migration [% of control ± SEM] CytoDBMC25 Picoxystrobin) […]"}, "[2]": {"tested_on": "neural crest cells (NCC)", "test": "Intracellular ATP measurement (CellTiterGlo)", "format": "cell-based, human", "settings": "after 60 min, at BMC10 (V) of cMINC", "description": "Cells were seeded at a density of 20,000 cells/well. The NCCs were treated with the BMC10 (V) of the cMINC screen for one hour, six hours or 24 h. Then, a CellTiterGlo-Triton mix was prepared. Therefore, a 0.5% Triton solution in PBS was prepared, and the commercial reagent mix CellTiterGlo 2.0 (Promgea, Madison, WI, USA) was added in a 1:1 ratio. An amount of 50 µL/well of the mix was added to 100 µL of medium. The plate was shaken for two minutes, and 100 µL of the cell mixture was transferred to a white measurement plate. For the blank value, only medium with the mix was measured. Luminescence data of samples were normalized to DMSO solvent controls, and the ATP data are given in % relative to “untreated cells”."}, "[3]": {"biological_target": "T1, complex III (cIII) (Homo sapiens, UniProt P00156)", "T1 construct": "endogenous in cells; host or cells: neural crest cells (NCC), digitonin-permeabilized", "test": "Electron transport chain complex activity in permeabilized NCC (Seahorse)", "format": "cell-based", "settings": "60 μM (BMC10(V) of cMINC)", "source_text": "Magel et al. (2024): Inhibition of neural crest cells migration by strobilurin fungicides\nFigure S9. Inhibition of electron transport chain complexes by picoxystrobin in neural crest […]\nNCC were exposed to the BMC10(V) of the cMINC assay (60 μ M). The grey area indicates th e non-significant range of the assay (≤ 25% change). The effect on complex IV (cIV) was non-significant (green bar). The purple bar indicates complex III (cIII) inhibition. Yellow bars […]\nthat for these assays, the electrons have to pass cIII to reach cIV (oxygen consumption), i.e. electrons from cI (or cII) cannot be used for the reduction of oxygen, as they need to flow through cIII (which is blocked). The pattern of inhibition is indicative of cIII as illustrated earlier (Delp et al., 2019; van der Stel et al., 2020).\nTo investigate the inhibition pattern of picoxystrobin, NCC were permeabilized and complex-specific substrates and inhibitors were sequentially injected as described earlier (Delp et al., 2019). In detail, cells were permeabilized with MAS buffer (220 mM mannitol, 1 mM ADP, 70 mM sucrose, 10 mM KH2PO4, 5 mM MgCl2, 2 mM HEPES, 1 mM EGTA, 4 mg/ml fatty acid-free BSA, pH = 7.2) supplemented with 25 μ g/mL digitonin. Seahorse measurements were started directly afterwards, and basal OCRs were assessed for internal normalization. Then picoxystrobin was injected and cI activity was assessed. […]"}, "[4]": {"parameters": "species or system human", "description": "Figure 8 Consideration of biokinetics for refined hazard (potency) estimates. (A) Concentration–response curve of the oxygen consumption rate (OCR) in NCCs cultured in galactose medium after a 24 h treatment with picoxystrobin. The highest tested concentration was 2.8 µM (highest non-cytotoxic exposure). Data are shown for two independent experiments (as in Figure 7B). (B) The cMINC assay was performed as in Figure 1, but the NCCs were cultured in galactose medium. The insert box gives picoxystrobin potency data for migration (M) and cytotoxicity (V), and their ratio. Data are expressed as means ± SEM from seven independent experiments. (C) Schematic illustration of the distribution of picoxystrobin in a cell culture well according to the in silico biokinetics prediction model. Data for each compartment are given either as percentage (left) or as concentrations (right) for a nominal concentration of 1 µM. (D) Tabular overview of the distribution of picoxystrobin in the different compartments at a nominal concentration of 1 µM. Mediumt: total medium; Mediumb: bound in medium; Mediumu: unbound in medium; Cellst: total amount in cells; CellsM: mitochondrial compartment; CellsL: lysosomal compartment; CellsR: “rest” of the cells. […] (E) Synoptic overview of predicted and measured concentrations of picoxystrobin. […]"}, "[5]": {"settings": "cited from earlier work"}},
  "data": [
    {"smiles": "CO/C=C(/C(=O)OC)c1ccccc1COc1cccc(C(F)(F)F)n1", "note": "[Picoxystrobin, picoxystrobin]", "values": [
      {"measurement": "concentration range at which migration was inhibited", "setting": "[1]; 18 h pre-treatment + 6 h migration", "value": "~600", "unit": "nM"},
      {"measurement": "BMC25", "setting": "[1]; galactose medium, 18 h pre-exposure + 6 h migration", "value": 0.6, "unit": "µM"},
      {"measurement": "ATP levels", "setting": "[2]", "value": "did not decrease"},
      {"measurement": "effect on complex III (cIII)", "setting": "[3]", "value": "inhibition of complex III"},
      {"measurement": "MoE for fetus (nominal data)", "setting": "[4]", "value": "2-100 fold"},
      {"measurement": "blood to plasma ratio", "setting": "[5]", "value": 0.71},
      {"measurement": "fraction unbound in blood plasma", "setting": "[5]", "value": 0.0127}
    ]}
  ]
}
